Source: patent US10974081B2, “Treatment and prevention of sleep disorders” (Purdue Pharma L.P., priority 2016, dated 2021)
Values after ≈ are worked out from the molar mass of the structure shown. Like-named read-outs stand apart in the source and are kept apart here.

Assays:
[1] = In vivo functional observational battery (FOB); details: male, Crl:CD(SD), rat, in vivo, po
rats [2] = test: In vivo functional observational battery (FOB); details: for Increased touch response: 10 mg/kg
rats [3] = test: EEG/EMG sleep-wake analysis, single administration compared to zolpidem; type: in vivo, rat
chronic insomniacs = details: 10 mg zolpidem, PSG in chronic insomniacs; cited from earlier work
ORL-1 receptor = ORL-1 receptor (Homo sapiens, UniProt P41146); test: Functional [^35S]GTPγS binding assay, ORL-1; type: biochemical; details: from ORL-1 Emax results in Table 21
mu-opioid receptor = mu-opioid receptor (Homo sapiens, UniProt P35372); details: determined in Example 18 of U.S. Pat. No. 8,476,271; cited from earlier work
[4] = Aqueous solubility at pH about 6.8; type: physicochemical; details: 25 °C, pH 6.8, aqueous buffer, kinetic from dmso stock
human liver microsomes = test: In vitro metabolic stability, human liver microsomes; type: in vitro ADME; details: 2 μM, % remaining after 30 minutes at 37° C.
Protocol: (§1) The comparative in vitro metabolic stabilities of Compounds (1F), […], and W-212393 were determined upon exposure to human liver microsomes or rat liver microsomes according to a procedure disclosed in, e.g., Example 14 of U.S. Pat. No. 9,290,488, which is hereby incorporated by reference in its entirety. Liver microsomes from Crj;CD rats or humans were incubated with 2 μM of each tested compound; thereafter, the supernatant was analyzed by HPLC-MS for the concentration of the tested compound present. Human liver microsomes, pooled, 20 mg/mL, were obtained from […] #H0610). […] Alternatively and if desired, rat liver microsomes can be obtained commercially from, e.g., XenoTech (Sprague-Dawley rat liver microsomes, pooled, 20 mg/mL, cat #R1000). β-NADPH (β-nicotinamide adenine dinucleotide 2'-phosphate reduced tetrasodium salt hydrate) was obtained from Oriental Yeast Co., Ltd. (Tokyo, Japan). Each tested compound, present at an initial concentration of 2 μM, was incubated at 37° C. in the presence of 0.5 mg/mL of either human microsomes or rat microsomes in suspension in 50 mM Tris-HCl buffer (7.4 pH), 150 mM KCl, 10 mM MgCl2, and 1 mM β-NADPH. Incubation was initiated upon the addition of a 100-fold concentrated solution of the tested compound to one of the microsome preparations. Incubation was terminated by addition of a two-fold volume of a 1/1 mixture of acetonitrile/methanol after either 0 minutes or 30 minutes of incubation at 37° C. Thereafter, proteins and other macromolecules from the microsome preparation were removed by centrifugation. All incubations were conducted in duplicate. […] The HPLC system consisted of a Waters 2795 separations module (Waters Corp., Milford, Mass.) equipped with an inline degasser, temperature controlled auto-sampler, and column oven. The analytical column was a Waters […], 2.1 mm×20 mm column. The mass analyzer was a Waters ZQ, single quadrupole mass spectrometer equipped with an electrospray ionization source operating in the positive ionization mode and utilizing a stainless steel spray capillary. […]

rat liver microsomes = test: In vitro metabolic stability, rat liver microsomes; type: in vitro ADME; details: 2 μM, % remaining after 30 minutes at 37° C.
Protocol: as §1

[5] = Free unbound compound fraction, equilibrium dialysis of rat serum; type: in vitro ADME; details: male, Crl:CD (SD), rat, rat serum; 2 μg/mL, 24 hours dialysis at 37° C.
Protocol: (§2) The extent of in vitro binding of Compound (1F) or W-212393 to rat serum was determined as an assessment of the availability of free unbound compound for modulating receptor activity according to a procedure disclosed in, e.g., Example 15 of U.S. Pat. No. 9,290,488, which is hereby incorporated by reference in its entirety. Serum from rats containing a tested compound in one chamber of a dialysis cell was dialyzed with phosphate buffered saline (“PBS”) in the other chamber; thereafter, the supernatant from each chamber was analyzed for the concentration of the tested compound present. […] The final concentration of each tested compound in the serum sample was adjusted to 2 μg/mL by adding an appropriate volume of PBS. A cell suitable for equilibrium dialysis was used in the determinations. A SPECTRA/POR dialysis membrane (with molecular mass cutoff of 12,000-14,000 Da, Spectrum Laboratories, Inc., Rancho Dominguez, Calif.) separated the dialysis cell into two chambers. A 500 μL aliquot of the serum sample containing a tested compound was applied to one chamber (serum chamber) of the dialysis cell. A 500 μL aliquot of PBS was applied to the other chamber (PBS chamber) of the dialysis cell. The dialysis study was conducted in duplicate for each tested compound. After 24 hours of equilibrium dialysis at 37° C., 30 μL of liquid from the serum chamber of the dialysis cell was collected and to this was added 270 μL of fresh PBS (this combination was designated Sample “A”). Then, 270 μL of liquid from the PBS chamber of the dialysis cell was collected and to this was added 30 μL of control rat serum (i.e., rat serum never exposed to any test compound, this combination was designated Sample “B”). […] Each supernatant was analyzed by LC-MS-MS. […] Thereafter, the percentage of free unbound tested compound was calculated from the ratio of the tested compound amount determined from Sample B divided by the sum of the tested compound amounts determined from Sample A and Sample B.

rat serum = test: as above; type: in vitro ADME; details: average of multiple determinations
Protocol: as §2

[6] = Rat protein binding, equilibrium dialysis of rat plasma; type: in vitro ADME; details: rat, rat plasma, 2 μg/mL, 24 hours dialysis at 37° C.
Protocol: (§3) The extent of in vitro binding of Compound (1F), […], or W-212393 to rat plasma was determined as an assessment of the protein binding of each compound, i.e., compound unavailable for modulating receptor activity. Plasma from rats containing a tested compound in one chamber of a dialysis cell was dialyzed with PBS in the other chamber; thereafter, the supernatant from each chamber was analyzed for the concentration of the tested compound present. A cell suitable for equilibrium dialysis was used in the determinations. The dialysis membrane described in Example 10 (with molecular mass cutoff of 12,000-14,000 Da) separated the dialysis cell into two chambers. The membrane was soaked with purified water and PBS before being placed into the dialysis cell. 4 μL of an iv formulation of each tested compound was added to 996 μL of rat plasma, the latter obtained using syringe containing heparin and EDTA by the procedure described in Example 10, to provide a plasma sample with a tested compound concentration of 2 μg/mL. 450 μL of the plasma sample was applied to one chamber (plasma chamber) of the dialysis cell. A 450 μL aliquot of PBS was applied to the other chamber (PBS chamber) of the dialysis cell. The dialysis study was conducted in duplicate for each tested compound. After 24 hours of equilibrium dialysis at 37° C., 30 μL of liquid from the plasma chamber of the dialysis cell was collected and to this was added 270 μL of fresh PBS (this combination was designated Sample “1”). Then, 270 μL of liquid from the PBS chamber of the dialysis cell was collected and to this was added 30 μL of control rat plasma (i.e., rat plasma never exposed to any test compound, this combination was designated Sample “2”). Thereafter, each sample was mixed well and stored in a freezer until the next analysis step. After the protein precipitated in the freezer, each supernatant thusly obtained was analyzed by LC-MS-MS for unbound test compound. […] Thereafter, the percentage of rat protein-bound (“RPB”) tested compound was calculated as follows: […]

rat plasma = test: as above; type: in vitro ADME
Protocol: as §3

[7] = In vivo bioavailability after oral dosing; details: male, Sprague-Dawley [Crl:CD(SD)], rat, plasma; 1 mg/kg oral, non-fasted; mean of multiple determinations
in vivo = details: male, Crl, CD(SD), rat, brain homogenate and plasma, intravenous, 0.5 mg/kg
[8] = 30 mg/kg, 1 h after administration
[9] = 30 mg/kg, 2 h after administration
[10] = 30 mg/kg, 4 h after administration
[11] = 30 mg/kg, 6 h after administration
[12] = 30 mg/kg, 8 h after administration
[13] = 30 mg/kg, 24 h after administration
[14] = 300 mg/kg, 1 h after administration
[15] = 300 mg/kg, 2 h after administration
[16] = 300 mg/kg, 4 h after administration
[17] = 300 mg/kg, 6 h after administration
[18] = 300 mg/kg, 8 h after administration
[19] = 300 mg/kg, 24 h after administration
[20] = 50 mM phosphate buffer, second procedure (50 mM phosphate buffer, HPLC), read-out: Solubility at pH 6.8
[21] = first procedure (JP2 solution, LC-MS), read-out: Solubility at pH 6.8

mu-opioid receptor, sequence (P35372 whole entry): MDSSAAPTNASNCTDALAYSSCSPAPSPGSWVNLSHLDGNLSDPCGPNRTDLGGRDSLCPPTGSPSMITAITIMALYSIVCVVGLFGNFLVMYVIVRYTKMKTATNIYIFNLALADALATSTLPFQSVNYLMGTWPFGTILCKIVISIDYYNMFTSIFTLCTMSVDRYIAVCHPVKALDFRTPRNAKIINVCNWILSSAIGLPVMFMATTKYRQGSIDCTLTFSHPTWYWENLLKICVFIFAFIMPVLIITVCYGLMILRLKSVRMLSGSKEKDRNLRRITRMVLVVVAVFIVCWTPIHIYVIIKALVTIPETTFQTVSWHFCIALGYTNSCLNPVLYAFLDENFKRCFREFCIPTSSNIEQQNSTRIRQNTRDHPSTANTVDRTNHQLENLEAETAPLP
ORL-1 receptor, sequence (P41146 whole entry): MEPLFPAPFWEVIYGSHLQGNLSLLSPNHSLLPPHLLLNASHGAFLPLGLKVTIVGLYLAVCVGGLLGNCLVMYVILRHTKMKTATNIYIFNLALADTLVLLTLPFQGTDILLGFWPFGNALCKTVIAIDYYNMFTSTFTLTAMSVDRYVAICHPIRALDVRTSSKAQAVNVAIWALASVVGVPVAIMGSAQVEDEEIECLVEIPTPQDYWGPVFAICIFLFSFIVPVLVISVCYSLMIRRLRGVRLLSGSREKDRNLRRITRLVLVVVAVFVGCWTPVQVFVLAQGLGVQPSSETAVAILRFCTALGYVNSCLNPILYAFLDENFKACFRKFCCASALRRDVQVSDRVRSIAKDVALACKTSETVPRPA

With `C[C@@H]1C[C@@H]2C[C@H](C1)C[C@@H](N1[C@@H]3CCC[C@H]1C[C@@H](n1c(=O)c(C(=O)O)nc4ccccc41)C3)C2` [Compound 405] the NOAEL [1] was 10 mg/kg, the Increased touch response (rats [2]; 1 h after administration) was 1 of 6 and the Increased touch response (rats [2]; 2 h after administration) was “N”. For the same compound, the Increased touch response (rats [2]; 4 h after administration) was “N”, the Increased touch response (rats [2]; 6 h after administration) was “N” and the Increased touch response (rats [2]; 8 h after administration) was “N”. The Increased touch response (rats [2]; 24 h after administration) was “N”, the Biting behavior (rats [2]; [8]) was “N” and the Jumping (rats [2]; [8]) was “N”. For the same compound, the Biting behavior (rats [2]; [9]) was “N”, the Jumping (rats [2]; [9]) was “N” and the Biting behavior (rats [2]; [10]) was “N”. The Jumping (rats [2]; [10]) was “N”, the Biting behavior (rats [2]; [11]) was 3 of 6 and the Jumping (rats [2]; [11]) was 1 of 6. The Biting behavior (rats [2]; [12]) was “N”, the Jumping (rats [2]; [12]) was “N” and the Biting behavior (rats [2]; [13]) was “N”. For the same compound, the Jumping (rats [2]; [13]) was “N”, the Biting behavior (rats [2]; 100 mg/kg, 1 h after administration) was “N” and the Biting behavior (rats [2]; 100 mg/kg, 2 h after administration) was “N”. For the same compound, the Biting behavior (rats [2]; 100 mg/kg, 4 h after administration) was “N”, the Biting behavior (rats [2]; 100 mg/kg, 6 h after administration) was 1 of 6 and the Biting behavior (rats [2]; 100 mg/kg, 8 h after administration) was 1 of 6. For the same compound, the Biting behavior (rats [2]; 100 mg/kg, 24 h after administration) was “N”, the Biting behavior (rats [2]; [14]) was “N” and the Jumping (rats [2]; [14]) was “N”. For the same compound, the Biting behavior (rats [2]; [15]) was “N”, the Jumping (rats [2]; [15]) was “N” and the Biting behavior (rats [2]; [16]) was “N”. For the same compound, the Jumping (rats [2]; [16]) was “N”, the Biting behavior (rats [2]; [17]) was 2 of 6 and the Jumping (rats [2]; [17]) was 1 of 6. For the same compound, the Biting behavior (rats [2]; [18]) was 1 of 6, the Jumping (rats [2]; [18]) was 2 of 6 and the Biting behavior (rats [2]; [19]) was “N”. The Jumping (rats [2]; [19]) was “N”.
In the case of `Cc1ccc(-c2nc3ccc(C)cn3c2CC(=O)N(C)C)cc1` [zolpidem, reference compound], the overall sleep effect (rats [3]; single zolpidem dose of 10 mg/kg oral) is reported as “sleep-enhancing effect”, the “effect on percentage of time spent in REM sleep” value (rats [3]; zolpidem 10 mg/kg oral (FIG. 17B, 18B)) is reported as “no significant effects” and the “NREM sleep versus vehicle” value (rats [3]; zolpidem 10 mg/kg oral, 3 hour block 0-3 hours after dosing (FIG. 18C)) is reported as “significant increase”. The wakefulness versus vehicle (rats [3]; zolpidem 10 mg/kg oral, 3 hour blocks, 0-12 hours after administration (FIG. 18A)) was “decreased tendency”, the “percentage of time spent in wakefulness” value (rats [3]; zolpidem 10 mg/kg oral, at 1 hour after dosing (FIG. 17A)) was “about 46%” and the “percentage of time spent in NREM sleep” value (rats [3]; zolpidem 10 mg/kg oral, at 1 hour after dosing (FIG. 17C)) was “about 53%”. The “percentage of time spent in wakefulness” value (rats [3]; zolpidem 10 mg/kg oral, at 10 hours after dosing (FIG. 17A)) was ~43%, the “percentage of time spent in NREM sleep” value (rats [3]; zolpidem 10 mg/kg oral, at 15 hours after dosing (FIG. 17C)) was ~30% and the “percentage of time spent in wakefulness” value (rats [3]; zolpidem 10 mg/kg oral, at 15 hours after dosing, lights-on period (FIG. 17A)) was “about 69%”. For the same compound, the “Mean percent SE higher than placebo group” value (chronic insomniacs) was 7%.
In the case of `O=C(O)c1nc2ccccc2n([C@H]2C[C@H]3CCC[C@@H](C2)N3C2CC3CCCC(C3)C2)c1=O` (stereo partly shown) [Compound (1C)], the “agonist classification at ORL-1 from Emax” value (ORL-1 receptor) is listed as “partial agonists” and the “GTPγS Mu Emax” value (mu-opioid receptor) is listed as 0%.
For `O=C(O)c1nc2ccccc2n([C@H]2C[C@H]3CCC[C@@H](C2)N3C2CC3CCCC(C3)C2)c1=O` (stereo partly shown) [Compound (1F)], the solubility at 16 h [4, 20] was 35 µM (≈ 15.2 µg/mL), the solubility at 16 h [4, 21] was > 50 µM and the solubility at 16 h ([4]; pH of about 6.8, over both determinations, read-out: aqueous solubility) was ≥ 35 µM. The “Human Metabolic Stability (%)” value (human liver microsomes) was 98.7%, the “Rat Metabolic Stability (%)” value (rat liver microsomes) was 95.3% and the fraction unbound at 24 h, 2 μg/mL [5] was 0.65 to 0.7. The “free unbound compound fraction, average” value (rat serum) was 67.5%, the fraction unbound at 24 h, 2 μg/mL [6] was 0.491 and the “Rat Protein Binding (%)” value (rat plasma; 2 μg/mL, 24 hours dialysis at 37° C.) was 53.0%. The “bound compound fraction, average” value (rat plasma; average of multiple determinations) was 52%.
For `C[C@@H]1C[C@@H]2C[C@H](C1)C[C@@H](N1[C@@H]3CCC[C@H]1C[C@@H](n1c(=O)c(C(=O)O)nc4ccccc41)C3)C2` [Compound 405K], the solubility at 16 h [4, 20] was 5 µM (≈ 2.25 µg/mL), the solubility at 16 h [4, 21] was 8 µM (≈ 3.6 µg/mL) and the solubility at 16 h ([4]; pH of about 6.8, average of two determinations, read-out: aqueous solubility, average) was ~6.5 µM (≈ 2.92 µg/mL). The “Human Metabolic Stability (%)” value (human liver microsomes) was 95.1%, the “Rat Metabolic Stability (%)” value (rat liver microsomes) was 96.9% and the bioavailability [7] was 63.7%. It also gave a fraction unbound at 24 h, 2 μg/mL [6] of ~0.14 and a Kp at 30 min (in vivo) of 0.
